Reference: patent publication US11779600B2, “Methods of treating or preventing alzheimer's disease and associated conditions” (CEDARS-SINAI MEDICAL CENTER, priority 2016, dated 2023)

Tests used:
ADtg mice [1] = assay: Pre- and post-synaptic density in brains of AD+ mice after immune modulation; type: in vivo, mouse; details: 13m old AD+ mice (FIG. 3E)
Method: ADtg mice (10 months old) received subcutaneous injections of GA [also known as Cop-1 and Copaxone®; 100 μg in phosphate-buffered saline (PBS)] or PBS alone (control group) twice a week for 1 week and then once a week for 8 weeks. For evaluation of innate immune infiltration to the brain by flow cytometry, 10-month-old ADtg mice received subcutaneous injections of GA ([…]) or PBS alone twice a week for 1 week and then once a week for 3 weeks. At the end of the study, all mice were anaesthetized and then perfused with ice-cold PBS with 0.5 mM EDTA, after which their organs were collected and analyzed or fixed in 2.5% paraformaldehyde (Sigma-Aldrich), and cryoprotected with 30% sucrose for further histological analysis. […]
To define the synaptic area in the hippocampus of ADtg and non-transgenic (wild-type) mice, three independent coronal brain sections at bregma −2.50 , −2.65, and −2.80 mm (Liang et al., 2011) per animal (n=6 mice per group) were stained with the presynaptic marker VGluT1 (encoded by Slc17a7) (Chemicon, guinea pig, 1:6000). […] Single optical section images were analyzed using the NIH ImageJ macro and batch process to quantify the synaptic area (15 optical sections/field, 15 fields/brain section, and 675 total images/brain). The average synaptic area or percentage of the area per image was calculated for each condition. […]

OPN = assay: Western blot of OPN and its MMP-cleaved fragments in macrophages; type: cell-based, mouse; details: Western blot band density (FIG. 16I-16J)
Method: MΦ^BM were lifted from each cell by 2 mM EDTA-PBS, collected in an Eppendorf tube, and centrifuged. Cell pellets were lysed in RIPA buffer (Thermo Scientific) and supplemented with a cocktail of protease inhibitors (Thermo Scientific). Protein concentration was determined using a BCA Protein Assay Kit (Thermo Scientific). Aliquots of protein samples were electrophoretically separated using 4-12% Bis-Tris gels (Invitrogen), then transferred to nitrocellulose membranes, blocked in Tris-buffered saline (TBS) containing 5% (w/v) non-fat dry milk, and hybridized with appropriate primary antibodies, including rabbit polyclonal OPN (Abcam), goat polyclonal OPN (R&D systems), and Actin (Abcam). Membranes were then incubated with the appropriate HRP-conjugated secondary antibody prior to development with chemiluminescent substrates. Densitometric analysis of blots was conducted using ImageJ software, and each experimental sample was normalized to Actin.
Next, MMP-9 expression and OPN proteolytic fragments were analyzed. […] OPN is a known substrate for MMPs (including MMP-9). A detailed analysis of OPN expression in macrophages was performed using a polyclonal antibody recognizing full-length OPN and its MMP-cleaved fragments, including the 32 kD form. […] Remarkably, the MMP-generated 32kD C-terminus-containing peptide was elevated 12-fold after GA treatment. […]

ADtg mice [2] = assay: Vascular cerebral amyloid angiopathy (CAA) score in ADtg mice; type: in vivo, mouse; details: ADtg mice (FIG. 12)
Method: ADtg mice (10 months old) received subcutaneous injections of GA [also known as Cop-1 and Copaxone®; 100 μg in phosphate-buffered saline (PBS)] or PBS alone (control group) twice a week for 1 week and then once a week for 8 weeks. For evaluation of innate immune infiltration to the brain by flow cytometry, 10-month-old ADtg mice received subcutaneous injections of GA (100 mg in PBS) or PBS alone twice a week for 1 week and then once a week for 3 weeks. At the end of the study, all mice were anaesthetized and then perfused with ice-cold PBS with 0.5 mM EDTA, after which their organs were collected and analyzed or fixed in 2.5% paraformaldehyde (Sigma-Aldrich), and cryoprotected with 30% sucrose for further histological analysis.
Following secondary antibody staining, the brain sections were stained with thioflavin-S(Thio-S, 1% w/v in 70% ethanol) (Sigma-Aldrich) for 10 min at room temperature, washed three times in 70% ethanol, and then washed once in distilled water, for 1 min each.

Substance: glatiramer acetate [GA]
- synaptic rescue (pre- and post-synaptic areas) (ADtg mice [1]): remarkable synaptic rescue
- elevation of MMP-generated 32kD C-terminus-containing OPN peptide (OPN): 12 fold
- vascular cerebral amyloid angiopathy (CAA) burden (ADtg mice [2]): decreases
